Data on 12 compounds can be found in US20240156790A1, “COMPOUNDS, COMPOSITIONS, AND METHODS FOR MODULATING FERROPTOSIS AND TREATING EXCITOTOXIC DISORDERS” (THE TRUSTEES OF COLUMBIA UNIVERSITY IN THE CITY OF NEW YORK, priority 2018, published 2024).

The subject of data set [1] is HT-1080 cells. In words: Rescue activity of selected Fer-1 analogs, dose-response in HT-1080 cells (cell titer glo). The data set is classed as cell-based. As to the method: Selected Fer-1 analogs containing a pyridine moiety (FIG. 4) were tested to examine their efficacy and overall potency in inhibiting ferroptosis. For each of these compounds, dose-response curves were generated in HT-1080 cells looking at the effectiveness of the molecules in inhibiting ferroptosis induced by either 3 μM IKE or 0.2 μM RSL3, Fer-1 was used as a positive control. For each dose-response curve, 1,000 cells/well were seeded in a 384 well plate and allowed to adhere overnight prior to treating with compound from a daughter plate. Cells were treated for 48 hours, unless otherwise noted, prior to viability being analyzed using cell titer glo (40 μL per well). All liquid handling was performed using the BioMek. All samples were prepared in triplicate, unless otherwise noted.
For orientation: In ATP-based viability assays light output follows the ATP content of the culture.

Data set [2] relates to HT-1080 cells. In words: Rescue activity of Fer-1 analogs: inhibition of erastin-, IKE- or RSL3-induced death (Alamar Blue viability). In kind it is cell-based. As to conditions: Homo sapiens. As to the method:
HT-1080 cells are cultured in DMEM containing 10% fetal bovine serum, 1% supplemented non-essential amino acids and 1% pen/strep mixture (Gibco) and maintained in a humidified environment at 37° C. with 5% CO2 in a tissue culture incubator. 1,000 HT-1080 cells are seeded per well in duplicate 384-well plates (Corning) using a BioMek FX liquid handling robot (Beckman Coulter). The next day, the medium is replaced with 36 μL of medium containing 10 μM erastin with 4 μL of medium containing a dilution series (previously prepared) of DMSO, Fer-1 (positive control) or Fer-1 analogs. […] Cells are incubated a further 6 hours and then the Alamar Blue fluorescence intensity recorded using a Victor 3 platereader (PerkinElmer)(ex/em 530/590). All experiments are performed at least twice and the background (no cells)-subtracted Alamar Blue values for each combination are averaged between replicates. The same procedure was repeated by replacing erastin (10 μM) with IKE (3 μM) or RSL3 (0.2 μM).
Background: Alamar Blue is a resazurin reagent that responds to reducing activity.

A short description of data set [3]: Microsomal stability, mouse liver microsomes (Table 1). In kind it is in vitro ADME, Mouse: CD1. As to conditions: for average % remaining after 120 minutes: compounds with t1/2 > 120 min, in parentheses; for half-life: liver microsomes. How it is done: Each compound (1 μM) is incubated with mouse plasma, for 4 hours at 37° C., with shaking at 100 rpm. The concentration of compound in the buffer and plasma chambers is determined using LC-MS/MS. Metabolism of each compound is predicted using Sites of Metabolism (Schrodinger Suite), which combines intrinsic reactivity analysis (Hammett-Taft) with induced fit docking against 2C9, 2D6 and 3A4. This approach identifies 90% of known metabolism sites and has a false positive rate of 17%. The in vitro metabolic stability of each compound in mouse liver microsomes is determined. Pooled mouse liver microsomes are prepared and stored at −80° C. until needed. […]
A general note: Liver microsomes are a subcellular fraction often used to study metabolism.

Data set [4] is described as follows: Microsomal Stability Assay (Examples 6 and 8). In kind it is in vitro ADME, mouse. As to conditions: for microsomal stability / half-life, in words: assessed over two hours. How it is done: (§1) To a 96-well polypropylene plate was added phosphate buffer (182.2 μL, pH 7.4, 100 mM) followed by addition of NADPH-regenerating system solution A (10 μL), and NADPH regenerating system solution B (2 μL) (Corning Gentest 3P NADPH regenerating system solution A (#451220) and B (#451200)). A stock solution of analog (0.8 μL. 5 mM) or fer-1 (positive control) was added and the mixture was warmed to 37° C. for 5 min. Mouse microsomes (CD-1, 20 mg/mL, Life Technologies) (5 μL, thawed in 37° C. water bath before use) were added. The resulting reaction mixture was kept at 37° C. with gentle agitation for the duration of the experiment. At selected time points (0, 1, 5, 10, 20, 30, 60 and 120 min) aliquots (15 μL) were withdrawn from the plate and quenched upon addition to cold methanol (60 μL), containing an internal standard (5 μM) in a separate 96-well polypropylene plate. At the completion of the final time-point, the samples were centrifuged at 4,000 rpm for 5 min at 4° C. The supernatant (40 μL) was withdrawn and transferred to a sample vial with insert. The samples were analyzed by LC-MS. LC-MS analysis was performed on a platform comprising a Thermo Scientific Dionex Ultimate 3000 and a Bruker amaZon SL equipped with an electrospray ionization source controlled by Bruker Hystar 3.2. Chromatographic separation was performed by injecting 5 μL of the sample onto an Agilent Eclipse Plus C18 column (2.1×50 mm, 3.5 μm) maintained at 20° C. The flow rate was maintained at 400 μL/min. The initial flow conditions were 80% solvent A (water containing 0.1% acetic acid) and 20% solvent B (methanol containing 0.1% acetic acid). Solvent B was raised to 80% over 0.50 min by 1.50 min. Solvent B was raised to 100% by 5.00 min and held there for 3.25 min. […] All analogs were detected in positive mode as [M+H]*. The percent of compound remaining at each time-point was calculated as the ratio of the integrated compound peak over the internal standard peak and standardized to the t=0 time-point. Values were plotted in GraphPad Prism 9 and fit with a one phase decay.
as §1, with “and NADPH-regenerating” for “and NADPH regenerating”, “rpm (1872 g)” for “rpm”, “[M+H]*. […]” for “[M+H]*. The percent of compound remaining at each time-point was calculated as the ratio of the integrated compound peak over the internal standard peak and standardized to the t=0 time-point. Values were plotted in GraphPad Prism 9 and fit with a one phase decay.”

Data set [5] concerns HT-1080 cells. In words: Cell viability assays in HT-1080 cells, ferroptosis induced by IKE or RSL3 (Example 8). The data set is classed as cell-based. How it is done:
Cell culture assays were incubated at 37° C. with 5% CO2. HT-1080 cells were grown in DMEM (Corning) supplemented with 10% FBS (Life Technologies), 1% Penicillin-Streptomycin 10,000 U/mL (Gibco), and 1% MEM Non-Essential Amino Acids Solution 100× (Gibco). For cell viability assays, cells were trypsinized, counted, and seeded into 384-well white polypropylene plates at 1,000 cells/well, unless otherwise specified. After allowing cells to adhere overnight, compounds in DMSO stocks were arrayed in a 16-point dilution series prepared in a mother plate, and treated from a daughter plate, [DMSO]=0.28%. After 24 or 48 h, 50% CellTiter-Glo (Promega) 50% cell culture medium was added to each well and incubated at room temperature with shaking for 15 min. Luminescence was measured using a Victor X5 plate reader (PerkinElmer). All cell viability data were normalized to the DMSO vehicle condition. […] All 384w measurements were performed in triplicate
We first evaluated the efficacy of four pyridine analogs, TH-2-9-1, TH-2-31, TH-2-37-1, and TH-2-37-2, in suppressing ferroptosis induced by IKE and RSL3 in HT-1080 cells. […] We sought to determine whether incorporation of pyridine changed stability in mouse liver microsomes.

The mark [6] stands for this setting: HT-1080, ^b 50% viability, HT-1080 treated with 3 μM IKE.
[7] abbreviates: HT-1080, ^c 50% viability, HT-1080 treated with 0.2 μM RSL3.
Setting [8] is: CD1, mouse, Mouse: CD1, read-out: Microsomal Stability t1/2.
Where [9] appears, read: HT-1080, no footnote marker printed, inducer not stated.
Where [10] appears, read: HT-1080, ^a 50% viability, HT-1080 cells treated with 10 μM erastin.

Molecules are shown by their SMILES. pEC50: −log10 of the molar value. Entries after “also recorded” stand apart in the source; their conditions may differ. Like-named read-outs stand apart in the source and are kept apart here. Where only a bound is given, the exact number is not on record here.

Turning to `Cc1noc(-c2cnc(NC3CCCCC3)c(N)c2)n1` [TH-2-30], the “potency compared, in words” value in the data set on HT-1080 cells [1] (3 μM IKE, 0.2 μM RSL3, 10 μM erastin) is “relatively less potent; also recorded: potency comparable to Fer-1 against IKE and RSL3”. Besides, the “toxicity (overall drop in viability)” value in the data set on HT-1080 cells [1] (at 10 μM compound) is on record as “appeared to be toxic”. The negative-log EC50 (pEC50) – broadly, −log10 of the EC50, conventionally taken in molar units – in the data set on HT-1080 cells [2] (setting [6]) is 6.34; in the data set on HT-1080 cells [2] (setting [7]), 6.93.
Take `CCCCCCNc1cc(C(=O)OC(C)(C)C)c(F)cc1NC12CC3CC(CC(C3)C1)C2` [CFI-A8]: in data set [3] (Mouse: CD1), the “Microsomal Stability t1/2” value was “Mouse: >120 min” and the “average % remaining after 120 minutes” value is recorded as “min (76.4%) Human: TBD Rat: TBD Dog: Pig: TBD”. Also, the pEC50 in the data set with HT-1080 cells [2] (setting [6]) was 7.70. Further, the pEC50 in the data set on HT-1080 cells [2] (setting [7]) was 7.72.
Turning to `Cc1cc(NC23CC4CC(CC(C4)C2)C3)c(NC2CCCCC2)cc1C(=O)OC(C)(C)C` [AZIII9, tert-butyl 4-(((3s,5s,7s)-adamantan-1-yl)amino)-5-(cyclohexylamino)-2-methylbenzoate], in data set [4], the “microsomal stability / half-life, in words” value is “half-lives greater than two hours; also recorded: the most stable compound tested”. Also, the “potency relative to fer-1 at suppressing ferroptosis, in words” value in the data set on HT-1080 cells [5] is “less potent than fer-1”.
With `CC(C)(C)OC(=O)c1ccc(NC2CCCCC2)c(NC23CC4CC(CC(C4)C2)C3)c1` [CFI-L034], the half-life in data set [3] (CD1 (mouse), mouse, human, in either mouse or human liver microsomes, read-out: T1/2) is over 2 h; in data set [3] (setting [8]), over 2 h. The “average % remaining after 120 minutes” value in data set [3] (Mouse: CD1) was “min (60.2%) Human: TBD Rat: TBD Dog: Pig: TBD”. The pEC50 with HT-1080 cells [2] (setting [9]) is 6.78.
Take `Nc1cc(-c2ncco2)ccc1NC1CCCCC1` [PHB4051, N1-cyclohexyl-4-(oxazol-2-yl)benzene-1,2-diamine]: in data set [4] (CD-1, mouse, liver microsomes, pH 7.4, text, read-out: half-life in mouse liver microsomes), the half-life at 20 µM was under 1 h. Further, in data set [4], the “microsomal stability / half-life, in words” value is reported as “the least stable compound”. The “potency relative to fer-1 at suppressing ferroptosis, in words” value in the data set on HT-1080 cells [5] is on record as “more potent than fer-1”.
In the case of `COc1cnc(NC2CCCCC2)c(N)c1` [TH-2-5, N^2-cyclohexyl-5-methoxypyridine-2,3-diamine], the “death observed with RSL3” value in the data set on HT-1080 cells [1] (0.2 μM RSL3, inhibitor range 10 μM-0 μM) was “No death was observed”. In addition, in the data set on HT-1080 cells [2] (setting [9]), the negative-log EC50 (pEC50) was under 6.46.
With `Cc1cccc(C)c1CNc1cc(C(=O)OC(C)(C)C)ccc1NC12CC3CC(CC(C3)C1)C2` [DL047, tert-butyl 4-(((3s,5s,7s)-adamantan-1-yl)amino)-3-((2,6-dimethylbenzyl)amino)benzoate], in data set [4], the “microsomal stability / half-life, in words” value is “half-lives greater than two hours”. The “potency relative to fer-1 at suppressing ferroptosis, in words” value with HT-1080 cells [5] was “less potent than fer-1”.
For the compound `CCCCCCNc1cc(C(=O)OC(C)(C)C)c(C)cc1NC12CC3CC(CC(C3)C1)C2` [CFI-A9], in data set [3] (Mouse: CD1), the “Microsomal Stability t1/2” value is listed as “Mouse: >120 min” and the “average % remaining after 120 minutes” value is “min (83.6%) Human: TBD Rat: TBD Dog Pig: TBD”. Besides, the pEC50 in the data set on HT-1080 cells [2] (setting [10]) was 7.19.
With `C=C/C=C(/CN/C(=C/C(=C\C)C(=O)OCC)CNC(CC)CCC)C(=C)O` (stereo not shown) [CFI-M82], the “Microsomal Stability t1/2” value in data set [3] (Mouse: CD1) is recorded as “Mouse: 10 min”.
With `CC(C)(C)OC(=O)c1ccc(NC2CCCCC2)c(NC23CC4CC(CC(C4)C2)C3)c1` [DL034, tert-butyl 3-(((3s,5s,7s)-adamantan-1-yl)amino)-4-(cyclohexylamino)benzoate], in data set [4], the “microsomal stability / half-life, in words” value is “half-lives greater than two hours”. For the same compound, in the data set on HT-1080 cells [5], the “potency relative to fer-1 at suppressing ferroptosis, in words” value is on record as “less potent than fer-1”.
The matching figures for `CC(C)(C)OC(=O)c1ccc(NC23CC4CC(CC(C4)C2)C3)c(NC2CCCCC2)c1` [DL032, tert-butyl 4-(((3s,5s,7s)-adamantan-1-yl)amino)-3-(cyclohexylamino)benzoate]: “half-lives greater than two hours” and “more potent than fer-1”.
As for `Cc1noc(-c2ccc(NC34CC5CC(CC(C5)C3)C4)c(N)c2)n1` [CFI-4066], the half-life in data set [3] (setting [8]) is 0.503 to 0.54 h. For the same compound, in the data set with HT-1080 cells [2] (setting [10]), the pEC50 is 6.91.
